Source: patent publication US12263248B2, “Compounds and compositions for intracellular delivery of therapeutic agents” (ModernaTX, Inc., priority 2018, dated 2025)
“Also recorded” adds a separate entry of the source.

Tests used:
[1] = Particle size and polydispersity index of nanoparticle compositions (Zetasizer Nano ZS); format: physicochemical; settings: for PDI (Polydispersity index): lipid nanoparticle, ±SD within one assay run (Table 37)
Outline: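 Values are size and PDI readings from a Zetasizer Nano ZS. Measurements are taken in 1×PBS; zeta potential, by contrast, uses 15 mM PBS.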

[2] = tested on: luciferase (Luc) mRNA; assay: Luc expression, whole body bioluminescence after intravenous administration to mice; format: in vivo; settings: for Fold increase in total body Luc Flux relative to MC3 at 6 h: Table 3A, i.v. administration; for Total Flux 3 hours / Total Flux 6 hours / Total Flux 24 hours / luciferase activity relative to MC3 LNP control: mice; for Total Flux 3 hours / Total Flux 6 hours / Total Flux 24 hours: i.v., Luc mRNA; for Novel lipid/MC3 ratio, 6 hr. timepoint, i.v. / Novel lipid/MC3 expression ratio, 6 hr. time point, i.v.: luciferase; for Fold increase in Luc expression relative to MC3, Intravenous (0.5 mpk dose) / Novel lipid/MC3 ratio, 6 hr. timepoint, i.v. / Novel lipid/MC3 expression ratio, 6 hr. time point, i.v. / luciferase activity relative to MC3 LNP control: intravenous; for Novel lipid/MC3 ratio, 6 hr. timepoint, i.v.: relative to MC3, Table 3G; for Novel lipid/MC3 expression ratio, 6 hr. time point, i.v.: relative to MC3 formulation; for Lipid/MC3 Luc expression: 0.5 mpk dose to mouse, 6 hours after administration; for luciferase activity relative to MC3 LNP control: 0.5 mg/kg (mRNA dose)
Outline: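 Bioluminescence, read as region-of-interest total flux at 3, 6 and 24 h, followed a single 0.5 mg/kg intravenous dose of Luc mRNA-loaded nanoparticles in mice (n=6). Luciferin substrate (200 μL, 15 mg/mL in PBS) was injected intraperitoneally into CD-1 mice 15 minutes ahead of each imaging point.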

[3] = tested on: luciferase (Luc) mRNA; assay: Luc expression (total flux) after intramuscular administration; format: in vivo, mice; settings: for Total flux, 0.001 mpk Dose / Total flux, 0.01 mpk Dose: 6 hours after intramuscular administration; for Fold increase in Luc expression relative to MC3, Intramuscular (0.001 mpk dose) / Fold increase in Luc expression relative to MC3, Intramuscular (0.01 mpk dose) / Novel lipid/MC3 expression ratio, 6 hr. time point, i.m. Luc: intramuscular; for Novel lipid/MC3 expression ratio, 6 hr. time point, i.m. Luc: relative to MC3 formulation
Outline: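 Total-flux luciferase signal in mice after one intramuscular injection. Nanoparticle formulations contained modified Luc mRNA, either alone or co-dosed with H10 mRNA (e.g., 0.0005 or 0.005 mpk of each), giving 0.001 or 0.01 mpk.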

[4] = tested on: luciferase (Luc) mRNA; assay: Luc expression in liver, lung, spleen and femur 6 hours after intravenous administration; format: in vivo; settings: mice, intravenous, 0.5 mpk
Outline: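 LNP-formulated mRNA given IV to mice (n=3) at 0.5 mpk; at 6 h, bioluminescence imaged ex vivo 15 min after IP D-luciferin (15 mg/mL, 200 μL), organs imaged within 25 min. Values are total flux by region of interest.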

[5] = tested on: IL-6, IP-10; assay: Cytokine induction in mice upon intravenous administration; format: in vivo; set-up: Cytokine induction IL-6 / Cytokine induction IP-10: unit not given here; settings: 0.5 mpk, 6 hours; for Cytokine induction IL-6 / Cytokine induction IP-10: intravenous
Outline: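 IL-6 and IP-10 concentrations determined 6 hours after a single intravenous 0.5 mpk dose of lipid nanoparticle formulation in mice, with MC3 and PBS as comparators.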

[6] = Table 1A, lipid:DSPC:cholesterol:PEG-DMG 50:10:38.5:1.5 mol %
[7] = Table 1C, compositions for subcutaneous administration
[8] = Table 1E, compositions for subcutaneous administration
[9] = Table 1B, formulated with hEPO mRNA
[10] = Table 1D, for subcutaneous administration, # formulated with hEPO mRNA
[11] = nanoparticle composition with hEPO mRNA (Table 30)

Row | SMILES | PDI ([1]; Table 1A) | Size (nm) [1, 6] [nm] | PDI [1, 7] | Size (nm) [1, 7] [nm] | Fold increase in total body Luc Flux relative to MC3 at 6 h [2] | Fold increase in Luc expression relative to MC3, Intravenous (0.5 mpk dose) [2] | Total Flux 3 hours ([2]; 0.5 mg/kg) | Total Flux 6 hours ([2]; 0.5 mg/kg) | Total Flux 24 hours ([2]; 0.5 mg/kg) | Total flux, 0.001 mpk Dose ([3]; Luc mRNA and H10 mRNA) [p/s] | Fold increase in Luc expression relative to MC3, Intramuscular (0.001 mpk dose) [3] | Fold increase in Luc expression relative to MC3, Intramuscular (0.01 mpk dose) [3] | Novel lipid/MC3 expression ratio, 6 hr. time point, i.m. Luc [3] | Total Flux Femur [4] | Total Flux Liver [4] | Total Flux Lung [4] | Total Flux Spleen [4] | Cytokine induction IL-6 [5] | Cytokine induction IP-10 [5] | Total flux, 0.01 mpk Dose ([3]; Luc mRNA and H10 mRNA) [p/s] | other results
1 | CCCCCCCCCOC(=O)CCCCCCCN(CCCCO)CCCCCCCC(=O)OC(CCCCCCCC)CCCCCCCC [Compound 20, Heptadecan-9-yl 8-((4-hydroxybutyl)(8-(nonyloxy)-8-oxooctyl)amino) octanoate] | 0.13 | 86.7 | 0.13 | 86.7 | 0.80 | 0.80 | 1.71E+10 | 2.48E+10 | 5.40E+08 | 2.59E+07 | 3.70 | 2.21 | 2.21 | 1.31E+07 | 1.84E+09 | 2.66E+07 | 1.43E+08 | 126.83 | 2468.24 |  | Luc expression upon intramuscular administration ([3]; Luc mRNA and H10 mRNA, doses of 0.001 and 0.01 mpk, in words): highest expression at both dose levels; also recorded: equivalent expression to the high dose of MC3; fold increase in Luc expression over MC3 formulations ([3]; intramuscular administration, in words): highest fold increase; IP-10 induction ([5]; i.v., in words): highest
2 | CCCCCCCCCOC(=O)CCCCCCCN(CCO)CCCCCCCCCC(=O)OC(CCCCCCCC)CCCCCCCC [Compound 23, Heptadecan-9-yl 10-((2-hydroxyethyl)(8-(nonyloxy)-8-oxooctyl)amino) decanoate] | 0.09 | 104.5 |  |  |  |  | 1.83E+09 | 1.15E+09 | 3.71E+08 | 8.27E+06 |  |  |  | 1.19E+06 | 2.92E+08 | 1.82E+06 | 3.08E+07 | 94.00 | 1015.95 | 2.20E+06 | PDI [1, 8]: 0.13; Size (nm) [1, 8]: 70.5 nm
3 | CCCCCC/C=C\COC(=O)CCCCCCCN(CCO)CCCCCCCC(=O)OC(CCCCCCCC)CCCCCCCC [Compound 24, Heptadecan-9-yl (Z)-8_((2-hydroxyethyl) (8-(non-2-en-1-yloxy)-8-oxooctyl)amino)octanoate] | 0.13 | 99.5 | 0.17 | 88.5 | 2.67 |  | 1.72E+10 | 2.25E+10 | 1.83E+09 | 3.78E+06 |  |  |  | 4.54E+06 | 4.19E+09 | 1.71E+07 | 8.78E+07 | 163.53 | 1172.93 | 3.97E+07 | Novel lipid/MC3 ratio, 6 hr. timepoint, i.v. [2]: 2.67; Novel lipid/MC3 expression ratio, 6 hr. time point, i.v. [2]: 2.67
4 | CCCCCCCCCCCOC(=O)CCCCCN(CCO)CCCCCCCC(=O)OC(CCCCCCCC)CCCCCCCC [Compound 25, Heptadecan-9-yl 8-((2-hydroxyethyl)(6-oxo-6-(undecyloxy)hexyl)amino)octanoate] | 0.10 | 85.8 | 0.16 | 76.3 | 1.89 |  | 2.27E+10 | 1.59E+10 | 9.77E+08 | 3.53E+06 |  |  | 1.46 | 4.40E+06 | 2.41E+09 | 1.51E+07 | 3.11E+07 | 233.45 | 1194.13 | 9.96E+07 | PDI [1, 9]: 0.14; Size (nm) [1, 9]: 69.7 nm; PDI [1, 10]: 0.13; Size (nm) [1, 10]: 77.6 nm; PDI (Polydispersity index) [1]: 0.10 ± 0.05; PDI [1, 11]: 0.230; Lipid/MC3 Luc expression [2]: 1.89; Novel lipid/MC3 ratio, 6 hr. timepoint, i.v. [2]: 1.89; Novel lipid/MC3 expression ratio, 6 hr. time point, i.v. [2]: 1.89; luciferase activity relative to MC3 LNP control [2]: higher expression compared to MC3
5 | CCCCCCCCCOC(=O)CCCN(CCO)CCCCCCCC(=O)OC(CCCCCCCC)CCCCCCCC [Compound 26, Heptadecan-9-yl 8-((2-hydroxyethyl)(4-(nonyloxy)-4-oxobutyl)amino) octanoate] | 0.16 | 91.9 |  |  | 4.24 | 4.24 | 6.75E+10 | 1.57E+10 | 1.54E+09 | 3.90E+06 | 0.56 | 1.39 |  | 4.67E+06 | 2.90E+09 | 1.18E+07 | 1.56E+07 | 273.56 | 2330.01 | 6.13E+07 | PDI (Polydispersity index) [1]: 0.16 ± 0.03; PDI [1, 11]: 0.120; Lipid/MC3 Luc expression [2]: 4.24; fold increase in Luc expression over MC3 formulations ([2]; intravenous administration, in words): highest fold increase; luciferase activity relative to MC3 LNP control ([2]; 0.5 mg/kg): higher expression compared to MC3; also recorded: highest luciferase activity of the series; IL-6 induction ([5]; i.v., in words): highest; IP-10 induction ([5]; i.v., in words): highest
6 | CCCCCCCCCOC(=O)CCCCCCCN(CCO)CCCCCC(=O)OC(CCCCCCCC)CCCCCCCC [Compound 27, Nonyl 8-((6-(heptadecan-9-yloxy)-6-oxohexyl)(2-hydroxyethyl)amino) octanoate] | 0.18 | 82.3 |  |  | 0.31 |  | 1.64E+10 | 1.03E+10 | 1.94E+09 | 2.55E+06 |  |  |  | 2.00E+06 | 2.16E+09 | 6.35E+06 | 3.78E+06 | 161.07 | 345.56 | 3.17E+07 | 
